Measured values as given in PMC8898348 (Journal of the Indian Chemical Society, 2022).
Read-outs that look alike come from different tables or passages of the source. Where a SMILES comes first, the peptide text is derived from it. The star is where a group is joined. MeOSuc = COC(=O)CCC(=O)*; CH2Cl = ClC*

Columns and labels:
95D = test: MTT cytotoxicity assay, 95D; type: cell-based; conditions: Homo sapiens, read-out: 95D IC50
SK-LU-1 = test: MTT cytotoxicity assay, SK-LU-1; type: cell-based; conditions: Homo sapiens, SK-LU-1, read-out: SK-LU-1 IC50
[1] = system: SPC-A-1, SK-LU-1, and 95D human lung cancer cell lines; test: MTT cytotoxicity assay, three lung cancer cell lines together; type: cell-based; conditions: read-out: IC50 growth inhibition in the three lung cancer cells
Collagenase = test: collagenase enzyme inhibition, spectrophotometric; type: biochemical; conditions: read-out: Collagenase IC50
Elastase = Elastase (Sus scrofa, UniProt P00772); test: elastase inhibitory activity, spectrophotometric; type: biochemical
Chain of Elastase (P00772 27-266): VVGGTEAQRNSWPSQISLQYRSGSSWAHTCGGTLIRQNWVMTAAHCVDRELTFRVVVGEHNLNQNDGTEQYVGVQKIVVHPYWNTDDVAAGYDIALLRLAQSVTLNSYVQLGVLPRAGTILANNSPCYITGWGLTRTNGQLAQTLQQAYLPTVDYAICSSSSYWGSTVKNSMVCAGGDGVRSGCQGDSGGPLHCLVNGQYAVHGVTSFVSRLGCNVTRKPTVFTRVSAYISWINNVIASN

| Compound | IC50 (95D) | IC50 (SK-LU-1) | IC50 [1] | IC50 (Collagenase) | IC50 (Elastase) | IC50 (Elastase; read-out: Elastase IC50) |
| --- | --- | --- | --- | --- | --- | --- |
| COc1cccc2c1C(=O)c1c(O)c3c(c(O)c1C2=O)C[C@@](O)(C(=O)CO)C[C@@H]3O[C@H]1C[C@H](N)[C@H](O)[C@H](C)O1 [Doxorubicin, reference compound] | 25 µM | 25 µM | 25 to 30 µM |  |  |  |
| OC[C@H](Cc1cccc(O)c1)[C@H](CO)Cc1cccc(O)c1 [Enterodiol] | 64.1 µM | 67.3 µM |  | 104 ± 11.3 µM | 11.1 ± 1.87 µM |  |
| O=C1OC[C@H](Cc2cccc(O)c2)[C@H]1Cc1cccc(O)c1 [Enterolactone] | 41.1 µM | 45.8 µM |  | 9.66 ± 1.52 µM | 22.5 ± 4.08 µM |  |
| COc1ccc(/C=C/C(=O)c2c(O)cc(OC)cc2OC)cc1 [Flavokawain A] | 22.4 µM | 23.3 µM | 12 to 30 µM | 66.3 ± 7.95 µM | 27.3 ± 4.67 µM |  |
| COc1cc(O)c(C(=O)/C=C/c2ccccc2)c(OC)c1 [Flavokawain B] | 32.6 µM | 29.3 µM | 12 to 30 µM | 71.1 ± 16 µM | 20.1 ± 2.36 µM |  |
| COc1cc(O)c(C(=O)/C=C/c2ccc(O)cc2)c(OC)c1 [Flavokawain C] | 21 µM | 22.7 µM | 12 to 30 µM | 62.1 ± 9.43 µM | 17.6 ± 1.68 µM |  |
| COC(=O)CCC(=O)N[C@@H](C)C(=O)N[C@@H](C)C(=O)N1CCC[C@H]1C(=O)N[C@H](C(=O)CCl)C(C)C [N-(Methoxysuccinyl)-Ala-Ala-Pro-Val-chloromethyl ketone, reference compound] (MeOSuc-AAPV-CH2Cl) |  |  |  |  |  | 30.6 ± 3.25 µM |
| CC(C)C[C@H](NP(=O)(O)O[C@@H]1O[C@@H](C)[C@H](O)[C@@H](O)[C@H]1O)C(=O)N[C@@H](Cc1c[nH]c2ccccc12)C(=O)O [Phosphoramidon, reference compound] |  |  |  | 101 ± 14.8 µM |  |  |
